The assay has as its system Moloney murine leukemia virus (MoLV). Kind of assay: in vitro XC plaque assay (inhibition of growth and replication of murine leukemia virus in mouse SC-1 cells). The class given is cell-based. The settings on record: compound added 2 hours prior to virus; for Average No. of Foci/plate: Control 36 foci/plate. The procedure:
This assay was performed according to the method of Rowe et al. (Virology, 1970, 42, 1136-39) as previously described by L. Hsu, et al. (J. Virological Methods, 1980, 1, 167-77) and T. L. Bowlin and M. R. Proffitt (J. Interferon Res., 1983, 3(1), 19-31). Mouse SC-1 cells (fibroblast) (10⁵) were seeded into each well of 6-well cluster plates (Costar #3506) in 4 ml Minimum Essential Medium (MEM) with 10% Fetal Calf Serum (FCS). Following an 18 hour incubation period (37°C), Moloney murine leukemia virus (MoLV) was applied at a predetermined titer to give optimal (i.e. countable) numbers of virus plaques. Compounds were added 2 hours prior to addition of the virus. Three days later the culture medium was removed, the SC-1 cell monolayers were exposed to UV irradiation (1800 ergs), and rat XC cells […] were seeded into each well in 4 ml MEM. Following an additional 3 day incubation (37°C), these cells were fixed with ethyl alcohol (95%) and stained with 0.3% crystal violet. Plaques were then counted under low magnification.

This is an account of results in patent publication EP0345751A1, “Anti-retroviral diflourinated nucleosides” (MERRELL DOW PHARMACEUTICALS INC., priority 1988, dated 1989).

The term inhibition denotes the percentage by which the read-out fell short of the control. `Nc1ccn([C@@H]2O[C@H](CO)[C@@H](O)C2(F)F)c(=O)n1` [2′-Deoxy-2′,2′-Difluorocytidine, 2′-deoxy-2′,2′-difluorocytidine]: the “Average No. of Foci/plate” value is listed as 28 (Concentration 0.0025 µg/ml), 15 (Concentration 0.005 µg/ml), 0 (Concentration 0.01 µg/ml) and 0 (Concentration 0.1 µg/ml). The molecule further showed an inhibition at 0.0025 µg/mL (Murine leukemia virus, SC1, Concentration 0.0025 µg/ml) of 22%. Also, testing at 0.005 µg/mL (Murine leukemia virus, SC1, Concentration 0.005 µg/ml) gave an inhibition of 58%. For the same molecule, the inhibition at 0.01 µg/mL (Murine leukemia virus, SC1, Concentration 0.01 µg/ml) turned out to be 100%. This molecule gave an inhibition at 0.1 µg/mL (Murine leukemia virus, SC1, Concentration 0.1 µg/ml) of 100%.
`Cc1cn([C@H]2C[C@H](N=[N+]=[N-])[C@@H](CO)O2)c(=O)[nH]c1=O` [AZT, 3′-azido-3′-deoxythymidine, reference compound]: the “Average No. of Foci/plate” value (Concentration 0.001 µg/ml) worked out at 18. The molecule also had an inhibition at 0.001 µg/mL (Murine leukemia virus, SC1, Concentration 0.001 µg/ml) of 50%.
